Structures are written as SMILES.

The target in the experiment is T1, human tyrosinase (Homo sapiens, UniProt P14679).
T1 sequence (P14679 19-529): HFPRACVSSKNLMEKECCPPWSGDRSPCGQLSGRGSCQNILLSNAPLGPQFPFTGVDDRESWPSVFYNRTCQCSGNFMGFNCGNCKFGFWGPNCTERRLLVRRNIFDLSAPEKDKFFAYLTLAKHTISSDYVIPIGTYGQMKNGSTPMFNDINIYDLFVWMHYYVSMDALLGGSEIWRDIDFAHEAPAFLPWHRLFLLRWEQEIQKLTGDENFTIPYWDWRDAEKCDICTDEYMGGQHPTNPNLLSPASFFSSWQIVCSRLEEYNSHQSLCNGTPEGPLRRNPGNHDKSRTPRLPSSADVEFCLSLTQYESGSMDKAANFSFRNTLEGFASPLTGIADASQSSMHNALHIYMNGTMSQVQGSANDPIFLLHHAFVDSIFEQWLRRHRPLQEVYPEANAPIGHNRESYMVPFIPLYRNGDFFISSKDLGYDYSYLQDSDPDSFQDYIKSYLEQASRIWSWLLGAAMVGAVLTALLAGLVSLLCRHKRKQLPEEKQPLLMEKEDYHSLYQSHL
The experiment is described as follows: Enzyme test: conversion of L-DOPA to L-dopaquinone by human tyrosinase (MBTH, absorption at 490 nm). Particulars: Concentration 100 μg/ml; substrate L-DOPA; read-out: Inhibition (% of control) of tyrosinase activity. Format: biochemical. An excerpt: The efficacy of the thiazoles has been verified using an enzyme test by measuring the conversion of L-DOPA to L-dopaquinone by a human tyrosinase. In this method that is known from the literature (Winder, A. J. and Harris H., New assays for the tyrosine hydroxylase and dopa oxidase activities of tyrosinase. Eur. J. Biochem. (1991), 198, 317-26), the reaction product L-dopaquinone is reacted with MBTH (3-methyl-2-benzothiazoline hydrazone) is converted to form a pink-colored substance, the increase of which over time is measured by absorption at 490 nm. In table one, efficacy data for some of the claimed substances are shown by way of example. It may be concluded therefrom that the substances according to the invention are extremely effective pigmentation-inhibiting substances.
The term inhibition denotes the relative decrease from the control value, in per cent. With `CCN(CC)CCNc1nc(-c2ccc(O)cc2O)cs1` [Compound 28], the inhibition at 100 µg/mL came out at 80.5%.
As for `Oc1ccc(-c2csc(Nc3ncccn3)n2)cc1` [Compound 20], the inhibition at 100 µg/mL was 61.3%.
For the compound `CN(c1ccccc1)c1nc(-c2ccc(O)cc2)cs1` [Compound 22], the inhibition at 100 µg/mL came to 87.9%.
In the case of `Oc1ccc(-c2csc(Nc3ncccn3)n2)c(O)c1` [Compound 1], the inhibition at 100 µg/mL was determined as 93.1%.
As for `O=C(Nc1nc(-c2ccc(O)cc2O)cs1)c1ccccc1` [Compound 26], the inhibition at 100 µg/mL was found to be 100%.
Then `Oc1ccc(-c2csc(Nc3ccccc3)n2)c(O)c1` [Compound 2], with 100%; and `Oc1ccc(-c2csc(NN3CCOCC3)n2)c(O)c1` [Compound 24], with 82.9%; and `Oc1ccc(-c2csc(Nc3ccccn3)n2)cc1` [Compound 21], with 87.6%.
For `Oc1ccc(-c2csc(N3CCOCC3)n2)c(O)c1` [Compound 25], the inhibition at 100 µg/mL was 90.3%.

The values are drawn from patent US8920785B2, “Cosmetic or dermatological preparations with a content of one or more thiazole derivates” (Beiersdorf AG, priority 2010, dated 2014).
